# Measurements: publication PMC9448386, “Discovery of novel conjugates of quinoline and thiazolidinone urea as potential anti-colorectal cancer agent” (Journal of Enzyme Inhibition and Medicinal Chemistry, 2022)
# How the values were obtained:
# AXL = target: T1, AXL (Homo sapiens, UniProt P30530); assay: Mobility shift assay, AXL; assay type: biochemical; details: mean of two independent experiments, SD shown
# T1 sequence (P30530 26-894): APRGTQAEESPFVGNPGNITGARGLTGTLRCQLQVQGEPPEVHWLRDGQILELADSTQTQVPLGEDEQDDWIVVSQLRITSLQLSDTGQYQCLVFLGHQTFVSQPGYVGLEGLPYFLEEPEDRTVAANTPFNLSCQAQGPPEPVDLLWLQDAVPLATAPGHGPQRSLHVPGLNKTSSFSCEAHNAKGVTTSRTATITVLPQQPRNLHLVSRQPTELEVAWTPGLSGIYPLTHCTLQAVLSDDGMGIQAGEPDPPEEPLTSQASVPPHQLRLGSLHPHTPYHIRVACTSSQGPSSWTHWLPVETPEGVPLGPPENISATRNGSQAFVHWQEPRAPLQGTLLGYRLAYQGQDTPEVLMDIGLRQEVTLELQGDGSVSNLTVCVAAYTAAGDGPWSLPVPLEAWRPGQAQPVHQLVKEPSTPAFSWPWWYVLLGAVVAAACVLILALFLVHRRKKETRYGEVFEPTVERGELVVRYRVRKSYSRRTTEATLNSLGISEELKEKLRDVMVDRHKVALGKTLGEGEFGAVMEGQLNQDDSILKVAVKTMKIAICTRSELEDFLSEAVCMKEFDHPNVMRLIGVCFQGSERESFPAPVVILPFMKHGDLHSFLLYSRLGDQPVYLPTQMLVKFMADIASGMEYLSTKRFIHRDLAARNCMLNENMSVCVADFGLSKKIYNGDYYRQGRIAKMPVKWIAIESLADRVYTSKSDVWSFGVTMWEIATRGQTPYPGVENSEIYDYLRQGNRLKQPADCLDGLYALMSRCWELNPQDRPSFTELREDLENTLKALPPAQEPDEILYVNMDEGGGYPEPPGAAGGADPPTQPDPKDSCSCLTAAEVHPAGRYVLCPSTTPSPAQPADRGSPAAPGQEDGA
# Procedure: (§1) Kinase inhibitory activity against HGFR, MST1R, ABL, PDGFRβ, AXL, FLT3, RET, c-Src, and VEGFR-2 was evaluated by the mobility shift assay. Detailed operation could be found in our previous research.
# COLO 205 cells [1] = assay: Annexin V-FITC/PI apoptosis assay by flow cytometry; assay type: cell-based; details: 72 h; for total apoptosis (early apoptosis and advanced apoptosis): mean of three independent determinations
# Procedure: Quantitative analysis of early-apoptotic cells, advanced-apoptotic cells and necrotic cells was determined. COLO 205 cells were stimulated with different concentrations of compound 10a for 72 h. […] The total apoptosis including early apoptosis and advanced apoptosis accounted for 58.8%, 29.3% and 21.0% (the mean value of three independent determinations) when COLO 205 cells were treated with compound 10a at the concentration of 1.0 μM, 0.33 μM and 0.11 μM, respectively.
# COLO 205 cells (2.5 × 10^5) were seeded in two 12-well plates and treated with DMSO and compound 10a (0.11 μM, 0.33 μM and 1.0 μM) for 72 h (37 °C, 5% CO2). The cells were collected, centrifuged at 1000 rpm for 5 min, and then washed with cold PBS for twice. Apoptosis assays were conducted with CytoFLEX S (Beckman Coulter).
# [2] = MTT assay, cytotoxicity against FHC cells; assay type: cell-based; details: FHC cells (normal colorectal mucosa epithelial cells); human normal colorectal mucosa epithelial cells; average of three separate determinations
# Procedure: In order to investigate the cell selectivity index, the cytotoxicity of potent compounds against human normal colorectal mucosa epithelial cell FHC cells was determined.
# (§2) Taking lead compound BC2021-104511-15i, Fruquintinib and Regorafenib as positive controls, the cytotoxic activity against HT-29, HCT-116, COLO-205 and FHC cell lines by MTT assay. Detailed operation could be found in our previous study.
# HCT-116 cells = assay: MTT assay, cytotoxic activity against HCT-116; assay type: cell-based; details: Homo sapiens, average of three separate determinations, SD shown
# Source text: as §2
# HT-29 cells = assay: MTT assay, cytotoxic activity against HT-29; assay type: cell-based, human; details: Homo sapiens, HT-29, average of three separate determinations, SD shown
# Source text: as §2
# COLO 205 cells [3] = assay: Cell cycle arrest assay by flow cytometry; assay type: cell-based; details: COLO 205, 0.33 μM and 0.11 μM, 24 h
# Procedure: The antiproliferative activity of compound 10a was evaluated by flowcytometry analysis of COLO 205 cells. COLO 205 cells were treated with different concentrations (1.0 μM, 0.33 μM and 0.11 μM) of compound 10a for 24 h. […] At the concentration of 1.0 μM, cell cycle arrest could not be determined due to the massive dead cells (data not shown).
# COLO 205 cells (2.5 × 10^5) were seeded in two 12-well plates and treated with DMSO and compound 10a (0.11 μM, 0.33 μM and 1.0 μM) for 24 h (37 °C, 5% CO2). Cells were collected, centrifuged at 1000 rpm for 5 min, washed with cold PBS for twice, and then fixed with 500 μL 75% cold ethanol at 4 °C. The cells were washed with cold PBS and stained with propidium iodide for 30 min in the dark. Cell-cycle analyses were conducted with Cytoflex S (Beckman Coulter).
# VEGFR-2 = VEGFR-2 (Homo sapiens, UniProt P35968); assay: Mobility shift assay, VEGFR-2; assay type: biochemical; details: mean of two independent experiments, SD shown
# Procedure: as §1
# COLO 205 cells [4] = assay: MTT assay, cytotoxic activity against COLO 205; assay type: cell-based
# Source text: as §2
# RET = RET (Homo sapiens, UniProt P07949); assay: Mobility shift assay, RET; assay type: biochemical; details: mean of two independent experiments, SD shown
# Procedure: as §1
# VEGFR-2, sequence (P35968 20-1356): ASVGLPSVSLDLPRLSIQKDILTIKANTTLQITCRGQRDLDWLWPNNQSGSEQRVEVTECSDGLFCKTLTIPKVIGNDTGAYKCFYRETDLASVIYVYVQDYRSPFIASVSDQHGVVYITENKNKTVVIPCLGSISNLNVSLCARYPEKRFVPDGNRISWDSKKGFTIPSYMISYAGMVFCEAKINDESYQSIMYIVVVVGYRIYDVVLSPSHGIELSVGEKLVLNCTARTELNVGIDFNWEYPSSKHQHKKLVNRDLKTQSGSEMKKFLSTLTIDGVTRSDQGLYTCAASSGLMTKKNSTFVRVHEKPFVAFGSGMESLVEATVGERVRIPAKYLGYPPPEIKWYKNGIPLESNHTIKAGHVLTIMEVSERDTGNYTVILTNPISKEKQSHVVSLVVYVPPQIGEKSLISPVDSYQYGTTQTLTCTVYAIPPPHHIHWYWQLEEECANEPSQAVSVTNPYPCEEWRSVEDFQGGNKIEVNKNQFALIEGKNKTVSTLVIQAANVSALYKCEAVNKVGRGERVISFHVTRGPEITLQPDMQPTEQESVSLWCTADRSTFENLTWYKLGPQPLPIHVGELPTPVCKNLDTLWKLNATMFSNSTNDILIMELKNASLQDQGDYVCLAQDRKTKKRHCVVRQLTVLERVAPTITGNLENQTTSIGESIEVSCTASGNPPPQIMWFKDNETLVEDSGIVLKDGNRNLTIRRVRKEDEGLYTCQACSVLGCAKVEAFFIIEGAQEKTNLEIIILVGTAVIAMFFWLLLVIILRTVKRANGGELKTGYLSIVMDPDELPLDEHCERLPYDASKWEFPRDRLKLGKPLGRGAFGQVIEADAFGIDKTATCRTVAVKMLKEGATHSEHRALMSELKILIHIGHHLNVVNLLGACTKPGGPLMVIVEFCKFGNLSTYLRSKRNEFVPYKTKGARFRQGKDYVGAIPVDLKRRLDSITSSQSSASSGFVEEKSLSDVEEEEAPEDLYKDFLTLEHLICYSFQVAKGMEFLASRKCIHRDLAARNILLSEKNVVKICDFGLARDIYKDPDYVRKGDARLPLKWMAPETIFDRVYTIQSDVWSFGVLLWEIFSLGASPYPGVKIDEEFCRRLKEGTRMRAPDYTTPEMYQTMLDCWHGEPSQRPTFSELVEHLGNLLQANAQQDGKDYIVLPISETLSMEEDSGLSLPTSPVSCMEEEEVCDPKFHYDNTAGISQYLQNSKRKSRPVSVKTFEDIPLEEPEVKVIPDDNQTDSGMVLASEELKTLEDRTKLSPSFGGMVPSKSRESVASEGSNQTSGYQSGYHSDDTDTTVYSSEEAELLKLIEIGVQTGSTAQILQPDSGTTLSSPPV
# RET, sequence (P07949 29-1114): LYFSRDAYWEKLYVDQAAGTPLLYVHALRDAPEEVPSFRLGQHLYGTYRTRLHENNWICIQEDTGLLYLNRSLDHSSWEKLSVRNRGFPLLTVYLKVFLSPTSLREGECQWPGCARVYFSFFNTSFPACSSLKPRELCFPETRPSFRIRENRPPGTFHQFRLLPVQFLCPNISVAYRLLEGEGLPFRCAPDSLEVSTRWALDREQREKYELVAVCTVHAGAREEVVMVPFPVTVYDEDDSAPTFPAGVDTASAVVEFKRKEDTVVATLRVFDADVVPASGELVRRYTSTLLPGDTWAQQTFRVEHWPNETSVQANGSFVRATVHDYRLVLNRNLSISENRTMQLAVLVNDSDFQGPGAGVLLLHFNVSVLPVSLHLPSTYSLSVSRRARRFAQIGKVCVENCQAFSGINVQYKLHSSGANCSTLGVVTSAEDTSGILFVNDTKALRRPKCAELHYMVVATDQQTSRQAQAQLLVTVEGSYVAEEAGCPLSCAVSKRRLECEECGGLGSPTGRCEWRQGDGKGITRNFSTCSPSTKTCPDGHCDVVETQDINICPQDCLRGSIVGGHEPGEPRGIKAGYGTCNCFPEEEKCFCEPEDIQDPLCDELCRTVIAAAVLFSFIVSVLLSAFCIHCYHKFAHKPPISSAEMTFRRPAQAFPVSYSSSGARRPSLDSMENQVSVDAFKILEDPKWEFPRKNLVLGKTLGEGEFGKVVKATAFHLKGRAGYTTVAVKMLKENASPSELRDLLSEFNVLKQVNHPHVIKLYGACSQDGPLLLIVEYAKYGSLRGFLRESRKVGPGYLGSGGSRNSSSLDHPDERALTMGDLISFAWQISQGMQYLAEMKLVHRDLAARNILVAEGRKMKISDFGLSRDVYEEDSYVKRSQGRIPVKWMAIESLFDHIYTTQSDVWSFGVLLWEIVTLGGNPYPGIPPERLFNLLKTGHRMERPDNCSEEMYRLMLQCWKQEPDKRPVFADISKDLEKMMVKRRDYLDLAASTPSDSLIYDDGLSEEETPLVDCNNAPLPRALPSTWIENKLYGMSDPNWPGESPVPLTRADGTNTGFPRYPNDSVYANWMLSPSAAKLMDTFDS
compound,measurement,setting,value
"COc1cc2c(Oc3ccc(NC(=O)NN4C(=O)CSC4c4c(F)cccc4F)cc3F)ccnc2cc1OC1CCN(CC(N)=O)CC1 (centres unmarked) [Compound 10a, 2–(4-((4–(4-(3–(2-(2,6-Difluorophenyl)-4-oxothiazolidin-3-yl)ureido)-2-fluorophenoxy)-6-methoxyquinolin-7-yl)oxy)piperidin-1-yl)acetamide]",IC50,AXL,950 ± 86 nM
same,total apoptosis (early apoptosis and advanced apoptosis),"COLO 205 cells [1]; COLO 205, 0.11 μM",21.0%
same,total apoptosis (early apoptosis and advanced apoptosis),"COLO 205 cells [1]; COLO 205, 0.33 μM",29.3%
same,total apoptosis (early apoptosis and advanced apoptosis),"COLO 205 cells [1]; COLO 205, 1.0 μM",58.8%
same,induction of apoptosis,"COLO 205 cells [1]; COLO 205, 0.11–1.0 μM",could effectively induce COLO 205 cells apoptosis in a dose-dependent manner
same,IC50,[2],> 10000 nM
same,IC50,HCT-116 cells,870 ± 110 nM
same,IC50,HT-29 cells,1300 ± 110 nM
same,cell cycle arrest,COLO 205 cells [3],could not arrest the cell-cycle progression
same,IC50,VEGFR-2,1160 ± 110 nM
same,fold more potent than Regorafenib and Fruquintinib against COLO 205,COLO 205 cells [4]; COLO 205 IC50 compared with Regorafenib and Fruquintinib,over 90 fold
same,cell selectivity index (FHC IC50 value vs COLO 205 IC50 value),COLO 205 cells [4]; COLO 205 relative to FHC cells,over 90 fold
same,IC50,"COLO 205 cells [4]; Homo sapiens, COLO 205, MTT, average of three separate determinations, SD shown",110 ± 24 nM
same,IC50,RET,1270 ± 100 nM
